Assay results: PubChem BioAssay (NCI)
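Compound exposure: 48 hours, 5 concentrations, 96-well plates. GI50 is the concentration that inhibits growth by half. TGI is the concentration that stops growth completely.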

The compounds below were run on M14 melanoma (assay: DTP human tumour cell line panel, 48 h).

| SMILES | TGI [µM] | GI50 [µM] |
| --- | --- | --- |
| CCC12C=CCN3CCC4(C(=C(C(=O)OC)[C@@H]1O)Nc1ccccc14)C32 (stereo partly specified) | 5.54 |  |
| O=C1CCC(=O)N1n1c(Cc2ccccc2)n[nH]c1=O | > 100 |  |
| O=C(O)CN(CC(=O)O)C1CCCCC1N(CC(=O)O)CC(=O)NCCN=C=S (stereo unspecified) | > 100 |  |
| N=c1n(C(=O)N2CCCC2)c2cc(Cl)ccc2n1C1=NCCN1 | > 100 |  |
| Cc1cn(C2CC(N(O)C(N)=O)C(CO)O2)c(=O)[nH]c1=O (stereo unspecified) | > 100 |  |
| [N-]=[N+]=Nc1cc(=O)oc2ccccc12 | > 100 |  |
| CC(=O)NC1=C(NCCC(C)C)C(=O)c2ccccc2C1=O | > 50 |  |
| O=C(O)c1cccc2c1/C(=N/Nc1ccccc1)CC2 | > 100 |  |
| O=C(Cc1cccs1)N[C@@H]1C(=O)N2C(C(=O)OC(c3ccccc3)c3ccccc3)=C(CO)CS[C@H]12 | > 100 |  |
| CC1=C(C)[C@@]2(C)O[C@@]2(C)O[C@@]2(C)O[C@@]12C | > 100 |  |
| O=C([O-])CC(=O)[O-].O=C([O-])CC(=O)[O-].[K+].[Pd+2] | > 100 | > 100 |

Each compound was assayed on NCI-H23 lung (assay: DTP human tumour cell line panel, 48 h).

| SMILES | TGI [µM] | GI50 [µM] |
| --- | --- | --- |
| CC1C=C(CCCCCCCCCCCC[C@@H](O)[C@@H]2CC[C@@H]([C@@H]3CC[C@@H](C(O)CCCCCCCCCCCCC4=C[C@H](C)OC4=O)O3)O2)C(=O)O1 (stereo partly specified) | > 100 |  |
| CCNC(=S)N/N=C/c1cc([N+](=O)[O-])ccc1O | > 100 |  |
| COc1cc([C@@H]2OCC3C(c4ccc5c(c4)OCO5)OCC32)cc(OC)c1OC (stereo partly specified) | > 100 |  |
| Cc1cc(N(CCC#N)CCC#N)ccc1/C(N=Nc1ccc(Cl)cc1)=N\NC(=O)c1ccccc1 | > 100 |  |
| CC[C@@]1(O)C(=O)OCc2c1cc1n(c2=O)Cc2c-1nc1ccccc1c2/C=N\NC(=O)CN | 1.04 |  |
| CCc1ccc(CCN2CCCCC2)nc1 | > 100 |  |
| CNC(=O)C(C)C1CCC2(C)C=CC(=O)C(C)=C2C1O (stereo unspecified) | > 100 |  |
| CCOc1cc2c(cc1O)/C(=N\OC)C[C@@H]1[C@@H]2CC[C@]2(C)[C@@H](O)CC[C@@H]12 | > 39.2 |  |
| CC1(C)N=C(/C(Cl)=[N+](/[O-])C(=O)c2ccc(F)cc2)C(C)(C)N1O | 42.8 |  |
| COC(=O)[C@H](Cc1c[nH]c2ccccc12)NP(=O)(O)OCC1C=CC(n2cc(C)c(=O)[nH]c2=O)O1 (stereo partly specified) | > 100 |  |
| CCCNC1=C2CC(C)CC(OC)[C@@H](O)[C@H](C)/C=C(\C)C(OC(N)=O)C(OC)/C=C\C=C(/C)C(=O)NC(=CC1=O)C2=O (stereo partly specified) | 23 | 0.0639 |
| C[n+]1c2ccccc2c(/C=N\NS(=O)(=O)c2ccc(O)c(C(=O)O)c2)c2ccccc21 | > 100 |  |
| O=C(Nc1ccc(C2=NCCN2)cc1)c1cncc(C(=O)Nc2ccc(C3=NCCN3)cc2)c1 | > 100 |  |
| Clc1ccc(/C=C/c2nc3ccccc3s2)cc1Cl | > 100 |  |
| C(/c1ccco1)=c1/nc(-c2ccccc2)n2c1nc1ccccc12 | > 100 |  |
| CC(=O)Nc1ccc(-c2nnc(SCC(=O)Nc3ccc([N+](=O)[O-])cc3)o2)cc1 | 25 |  |
| N.N.N.N.O=[N+]([O-])[O-].[Co+3].[N-]=[N+]=[N-].[N-]=[N+]=[N-] | > 100 |  |
| COC(=O)C1CCC(=O)N1C(c1ccccc1)c1ccc(OC)c(OC)c1 (stereo unspecified) | > 100 |  |
| Cc1cccc(/C=N/NC(=S)Nc2ccccc2)n1 | > 72.7 |  |
| Cc1cc(=O)[nH]c(NN2C(Cl)C(=O)C2c2ccccc2O)n1 (stereo unspecified) | > 100 |  |

| SMILES | TGI [µM] | GI50 [µM] |
| --- | --- | --- |
| CC[C@@]1(C[C@H]2C[C@@]3(C(=O)OC)c4[nH]c5ccccc5c4CCN3C2=O)COC2(CCCCC2)O1 | > 100 |  |
| CC(C)CCCCCCCCCCCCC(=O)NCC(=O)NC1C(C)OC(Nc2ncnc3c2ncn3C)C(O)C1O (stereo unspecified) | > 100 |  |
| C=C(C1=CC(=O)C(C)(C)O1)[C@@H]1CC=C([C@@H]2CC[C@H]3[C@@]2(C)CC[C@H]2C(C)(C)C(=O)[C@H](O)C[C@]32C)[C@H](O)O1 | 12.6 |  |
| CC1=CC2C(O1)C1C(=O)C=CC(=O)C1=CC2[N+](=O)[O-] (stereo unspecified) | 48.3 |  |
| C=C(Br)C(C)(Cl)CCC(Br)C(C)(C)Cl (stereo unspecified) | > 100 |  |
| CN1CCN([C@H]2C[C@H]3[C@@H]4CC=C5C[C@@H](O)CC[C@]5(C)[C@H]4CC[C@]3(C)C2=O)CC1 | > 100 |  |
| CCOC(=O)Nn1c(C)nnc1-c1ccccc1 | > 100 |  |
| Cc1cn(C2CC(n3cc(Cn4cc(I)c(=O)[nH]c4=O)nn3)C(CO)O2)c(=O)[nH]c1=O (stereo unspecified) | > 100 |  |
| CNC(=O)OCC1=C(COC(=O)NC)C(C)N(c2ccc(OC)cc2)C1 (stereo unspecified) | > 100 |  |
| CCC12C=CCN3CCC4(C(=C(C(=O)OC)[C@@H]1O)Nc1ccccc14)C32 (stereo partly specified) | 3.72 |  |
| O=C(O)CN(CC(=O)O)C1CCCCC1N(CC(=O)O)CC(=O)NCCN=C=S (stereo unspecified) | > 100 |  |
| Cc1cn(C2CC(N(O)C(N)=O)C(CO)O2)c(=O)[nH]c1=O (stereo unspecified) | > 100 |  |
| O=C1CCC23CC(C=CC=C12)n1c(=O)n(-c2ccccc2)c(=O)n13 (stereo unspecified) | > 100 |  |
| [N-]=[N+]=Nc1cc(=O)oc2ccccc12 | > 100 |  |
| CC(=O)NC1=C(NCCC(C)C)C(=O)c2ccccc2C1=O | > 50 |  |
| O=C(O)c1cccc2c1/C(=N/Nc1ccccc1)CC2 | > 100 |  |
| O=C(Cc1cccs1)N[C@@H]1C(=O)N2C(C(=O)OC(c3ccccc3)c3ccccc3)=C(CO)CS[C@H]12 | > 100 |  |
| CC1=C(C)[C@@]2(C)O[C@@]2(C)O[C@@]2(C)O[C@@]12C | > 100 |  |
| O=C([O-])CC(=O)[O-].O=C([O-])CC(=O)[O-].[K+].[Pd+2] | > 100 | > 100 |

Each compound was assayed on NCI-H522 lung (assay: DTP human tumour cell line panel, 48 h).

| SMILES | TGI [µM] | GI50 [µM] |
| --- | --- | --- |
| CC1C=C(CCCCCCCCCCCC[C@@H](O)[C@@H]2CC[C@@H]([C@@H]3CC[C@@H](C(O)CCCCCCCCCCCCC4=C[C@H](C)OC4=O)O3)O2)C(=O)O1 (stereo partly specified) | 39.6 |  |
| CCNC(=S)N/N=C/c1cc([N+](=O)[O-])ccc1O | 59.3 |  |
| COc1cc([C@@H]2OCC3C(c4ccc5c(c4)OCO5)OCC32)cc(OC)c1OC (stereo partly specified) | > 100 |  |
| Cc1cc(N(CCC#N)CCC#N)ccc1/C(N=Nc1ccc(Cl)cc1)=N\NC(=O)c1ccccc1 | 48.1 |  |
| CC[C@@]1(O)C(=O)OCc2c1cc1n(c2=O)Cc2c-1nc1ccccc1c2/C=N\NC(=O)CN | 35.5 |  |
| CCc1ccc(CCN2CCCCC2)nc1 | > 100 |  |
| N#CN=C(N(Cc1ccccc1)Cc1ccccc1)N(Cc1ccccc1)Cc1ccccc1 | > 100 |  |
| CNC(=O)C(C)C1CCC2(C)C=CC(=O)C(C)=C2C1O (stereo unspecified) | > 100 |  |
| CCOc1cc2c(cc1O)/C(=N\OC)C[C@@H]1[C@@H]2CC[C@]2(C)[C@@H](O)CC[C@@H]12 | 0.518 |  |
| CCCNC1=C2CC(C)CC(OC)[C@@H](O)[C@H](C)/C=C(\C)C(OC(N)=O)C(OC)/C=C\C=C(/C)C(=O)NC(=CC1=O)C2=O (stereo partly specified) | 28.6 | 0.361 |
| C[n+]1c2ccccc2c(/C=N\NS(=O)(=O)c2ccc(O)c(C(=O)O)c2)c2ccccc21 | > 100 |  |
| O=C(Nc1ccc(C2=NCCN2)cc1)c1cncc(C(=O)Nc2ccc(C3=NCCN3)cc2)c1 | > 100 |  |
| Clc1ccc(/C=C/c2nc3ccccc3s2)cc1Cl | > 100 |  |
| CC(=O)Nc1ccc(-c2nnc(SCC(=O)Nc3ccc([N+](=O)[O-])cc3)o2)cc1 | 20.7 |  |
| N.N.N.N.O=[N+]([O-])[O-].[Co+3].[N-]=[N+]=[N-].[N-]=[N+]=[N-] | > 100 |  |
| COC(=O)C1CCC(=O)N1C(c1ccccc1)c1ccc(OC)c(OC)c1 (stereo unspecified) | > 100 |  |
| COc1ccc(/C=C2\CCC(C)C3=C2NC(=S)NC3c2ccc(OC)c(OC)c2)cc1OC (stereo unspecified) | > 100 |  |
| CC[C@@]1(C[C@H]2C[C@@]3(C(=O)OC)c4[nH]c5ccccc5c4CCN3C2=O)COC2(CCCCC2)O1 | > 100 |  |

| SMILES | TGI [µM] | GI50 [µM] |
| --- | --- | --- |
| COc1ccc2c(=O)c(O)c(-c3ccc(OC)c(OC)c3)oc2c1 | 46 |  |
| CC(C)CCCCCCCCCCCCC(=O)NCC(=O)NC1C(C)OC(Nc2ncnc3c2ncn3C)C(O)C1O (stereo unspecified) | 31.9 |  |
| C=C(Br)C(C)(Cl)CCC(Br)C(C)(C)Cl (stereo unspecified) | > 100 |  |
| CN1CCN([C@H]2C[C@H]3[C@@H]4CC=C5C[C@@H](O)CC[C@]5(C)[C@H]4CC[C@]3(C)C2=O)CC1 | > 100 |  |
| CCOC(=O)Nn1c(C)nnc1-c1ccccc1 | > 100 |  |
| CCC12C=CCN3CCC4(C(=C(C(=O)OC)[C@@H]1O)Nc1ccccc14)C32 (stereo partly specified) | 3.06 |  |
| O=C1CCC(=O)N1n1c(Cc2ccccc2)n[nH]c1=O | > 100 |  |
| O=C(O)CN(CC(=O)O)C1CCCCC1N(CC(=O)O)CC(=O)NCCN=C=S (stereo unspecified) | > 100 |  |
| N=c1n(C(=O)N2CCCC2)c2cc(Cl)ccc2n1C1=NCCN1 | > 100 |  |
| Cc1cn(C2CC(N(O)C(N)=O)C(CO)O2)c(=O)[nH]c1=O (stereo unspecified) | > 100 |  |
| O=C1CCC23CC(C=CC=C12)n1c(=O)n(-c2ccccc2)c(=O)n13 (stereo unspecified) | > 100 |  |
| [N-]=[N+]=Nc1cc(=O)oc2ccccc12 | > 100 |  |
| CC(=O)NC1=C(NCCC(C)C)C(=O)c2ccccc2C1=O | > 50 |  |
| O=C(O)c1cccc2c1/C(=N/Nc1ccccc1)CC2 | > 100 |  |
| O=C(Cc1cccs1)N[C@@H]1C(=O)N2C(C(=O)OC(c3ccccc3)c3ccccc3)=C(CO)CS[C@H]12 | > 100 |  |
| CC1=C(C)[C@@]2(C)O[C@@]2(C)O[C@@]2(C)O[C@@]12C | > 100 |  |
| O=C([O-])CC(=O)[O-].O=C([O-])CC(=O)[O-].[K+].[Pd+2] | > 100 | > 100 |

Each compound was assayed on OVCAR-3 ovarian (assay: DTP human tumour cell line panel, 48 h).

| SMILES | TGI [µM] |
| --- | --- |
| CC1C=C(CCCCCCCCCCCC[C@@H](O)[C@@H]2CC[C@@H]([C@@H]3CC[C@@H](C(O)CCCCCCCCCCCCC4=C[C@H](C)OC4=O)O3)O2)C(=O)O1 (stereo partly specified) | > 100 |
| COc1cc([C@@H]2OCC3C(c4ccc5c(c4)OCO5)OCC32)cc(OC)c1OC (stereo partly specified) | > 100 |
| Cc1cc(N(CCC#N)CCC#N)ccc1/C(N=Nc1ccc(Cl)cc1)=N\NC(=O)c1ccccc1 | > 100 |
| CC[C@@]1(O)C(=O)OCc2c1cc1n(c2=O)Cc2c-1nc1ccccc1c2/C=N\NC(=O)CN | > 91 |
| CCc1ccc(CCN2CCCCC2)nc1 | > 100 |
| N#CN=C(N(Cc1ccccc1)Cc1ccccc1)N(Cc1ccccc1)Cc1ccccc1 | 31.7 |
